Patent publication US20180099961A1, “PROTEIN KINASE INHIBITORS” (Princeton Drug Discovery Inc, priority 2016, published 2018)
Like-named read-outs stand apart in the source and are kept apart here.

Experiments:
BTK (C481S) = molecular target: T1, BTK (C481S) (Homo sapiens, UniProt Q06187, C481S); assay: Off-chip Mobility Shift Assay; type: biochemical; conditions: read-out: IC50, recombinant BTK (C481S) activity
T1 construct: purchased Carna Biosciences

ABL = molecular target: T2, ABL (Homo sapiens, UniProt P00519); assay: Off-chip Mobility Shift Assay; type: biochemical; conditions: read-out: IC50, recombinant ABL activity
T2 construct: purchased Carna Biosciences
T2 sequence (P00519 whole entry): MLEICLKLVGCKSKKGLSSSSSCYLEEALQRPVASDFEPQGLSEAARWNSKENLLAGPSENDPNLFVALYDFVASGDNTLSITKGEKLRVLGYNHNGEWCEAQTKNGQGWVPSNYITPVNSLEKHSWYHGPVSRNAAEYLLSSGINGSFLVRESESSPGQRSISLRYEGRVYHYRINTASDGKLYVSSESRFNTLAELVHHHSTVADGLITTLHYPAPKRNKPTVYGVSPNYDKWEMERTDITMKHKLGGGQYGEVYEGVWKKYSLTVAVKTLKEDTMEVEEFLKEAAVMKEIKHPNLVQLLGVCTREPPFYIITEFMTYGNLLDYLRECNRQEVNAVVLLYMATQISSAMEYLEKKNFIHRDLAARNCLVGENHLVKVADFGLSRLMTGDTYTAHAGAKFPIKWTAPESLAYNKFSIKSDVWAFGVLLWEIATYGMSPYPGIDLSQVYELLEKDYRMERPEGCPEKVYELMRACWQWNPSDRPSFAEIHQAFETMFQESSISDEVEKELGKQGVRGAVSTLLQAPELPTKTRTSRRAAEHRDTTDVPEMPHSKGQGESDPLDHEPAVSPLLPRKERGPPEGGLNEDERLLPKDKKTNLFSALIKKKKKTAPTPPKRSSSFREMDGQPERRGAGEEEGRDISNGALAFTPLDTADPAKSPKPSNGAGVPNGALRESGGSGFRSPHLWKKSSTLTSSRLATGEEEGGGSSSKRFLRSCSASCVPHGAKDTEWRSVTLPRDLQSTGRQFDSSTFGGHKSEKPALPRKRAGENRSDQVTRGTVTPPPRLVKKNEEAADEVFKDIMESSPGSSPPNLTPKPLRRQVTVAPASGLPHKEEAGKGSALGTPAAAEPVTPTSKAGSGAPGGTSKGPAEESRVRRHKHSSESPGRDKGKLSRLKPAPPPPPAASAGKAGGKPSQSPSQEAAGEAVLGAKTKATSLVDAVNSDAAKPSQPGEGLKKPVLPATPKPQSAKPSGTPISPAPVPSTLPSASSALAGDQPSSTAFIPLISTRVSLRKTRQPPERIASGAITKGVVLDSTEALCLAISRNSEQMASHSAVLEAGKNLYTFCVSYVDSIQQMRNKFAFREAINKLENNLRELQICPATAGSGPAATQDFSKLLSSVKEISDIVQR

ABL(E255K) = molecular target: T3, ABL(E255K) (Homo sapiens, UniProt P00519, E255K); assay: Off-chip Mobility Shift Assay; type: biochemical; conditions: read-out: IC50, recombinant ABL (E255K) activity
T3 construct: purchased Carna Biosciences
T3 sequence (P00519 whole entry E255K): as the sequence (P00519 whole entry) above, with E255K counted along it

[1] = Pharmacokinetics in Sprague-Dawley rats, 2-in-1 dosing; type: in vivo; conditions: for intravenous plasma clearance compared to dasatinib and compound III / intravenous volume of distribution compared to dasatinib and compound III: Sprague-Dawley rats; for clearance / Vd: single dose (Table 3); for clearance: read-out: CL (plasma clearance) (converted); for Vd: read-out: V (volume of distribution); for AUC(0-inf) / AUC(0-t) / half-life / Cmax / Tmax: single dose, plasma (Table 3); for half-life: read-out: t½ (converted)
Protocol: Sprague-Dawley rats (approximate weight 275-300 g, N=3) were dosed intravenously at 5 mL/kg and orally at 10 mL/kg with the above dosing solutions. Blood samples were collected into tubes containing EDTA as the anticoagulant at 0, 0.25 (intravenous only), 0.5, 1, 2, 4, 8, 10, and 24 h post-dosing, and plasma samples were prepared by centrifugation. The plasma samples were mixed with 3× volumes of acetonitrile containing 100 nM reserpine as the internal standard, and centrifuged at 4000 RPM for 15 min. The supernatants were injected for LC/MS analysis which were carried out on a AB Sciex 4000 Q Trap LC/MS/MS system coupled with Shimadzu Prominence UFLCXR 20 series (including a CBM-20A controller, two LC-20ADXR solvent delivery units, SIL-20AC HT autosampler, CTO-20A column oven, and a SPD-20A UV detector). The samples were separated on a Phenomenex Columbus column (C18, 4 μm, 50×2 mm) eluted with two solvent systems: 2 mM ammonium acetate in water containing 0.1% formic acid (A) and methanol (B) at a linear gradient starting with 25% B. Electrospray ionization in positive mode was used to acquire LC/MS/MS data.

[2] = Metabolic stability in human liver microsomes; type: in vitro ADME; conditions: for metabolic stability as compared to dasatinib: human liver microsomes; for microsomal CLint at 1 μM / half-life at 1 μM: human, liver microsomes, human liver microsomes 0.5 mg/mL, NADPH and UDPGA, 37° C.; for microsomal CLint at 1 μM: read-out: CLint (intrinsic clearance); for half-life at 1 μM: read-out: In vitro t1/2
Protocol: FIG. 1. Metabolic stability of compounds in human liver microsomal incubations. […] Concentrations at specified times were determined by LC-MS/MS.
The incubation reactions at various time points were quenched by adding 2× volumes of acetonitrile containing 100 nM reserpine. The quenched incubation samples were centrifuged at 4000 RPM for 10 min, and the supernatants injected for LC/MS/MS analysis. LC/MS/MS analysis was carried out on a AB Sciex 4000 Q Trap LC/MS/MS system coupled with Shimadzu Prominence UFLCXR 20 series (including a CBM-20A controller, two LC-20ADXR solvent delivery units, SIL-20AC HT autosampler, CTO-20A column oven, and a SPD-20A UV detector).

BTK = molecular target: T4, BTK (Homo sapiens, UniProt Q06187); assay: Off-chip Mobility Shift Assay; type: biochemical; conditions: read-out: IC50, recombinant BTK activity
T4 construct: purchased Carna Biosciences
T4 sequence (Q06187 whole entry): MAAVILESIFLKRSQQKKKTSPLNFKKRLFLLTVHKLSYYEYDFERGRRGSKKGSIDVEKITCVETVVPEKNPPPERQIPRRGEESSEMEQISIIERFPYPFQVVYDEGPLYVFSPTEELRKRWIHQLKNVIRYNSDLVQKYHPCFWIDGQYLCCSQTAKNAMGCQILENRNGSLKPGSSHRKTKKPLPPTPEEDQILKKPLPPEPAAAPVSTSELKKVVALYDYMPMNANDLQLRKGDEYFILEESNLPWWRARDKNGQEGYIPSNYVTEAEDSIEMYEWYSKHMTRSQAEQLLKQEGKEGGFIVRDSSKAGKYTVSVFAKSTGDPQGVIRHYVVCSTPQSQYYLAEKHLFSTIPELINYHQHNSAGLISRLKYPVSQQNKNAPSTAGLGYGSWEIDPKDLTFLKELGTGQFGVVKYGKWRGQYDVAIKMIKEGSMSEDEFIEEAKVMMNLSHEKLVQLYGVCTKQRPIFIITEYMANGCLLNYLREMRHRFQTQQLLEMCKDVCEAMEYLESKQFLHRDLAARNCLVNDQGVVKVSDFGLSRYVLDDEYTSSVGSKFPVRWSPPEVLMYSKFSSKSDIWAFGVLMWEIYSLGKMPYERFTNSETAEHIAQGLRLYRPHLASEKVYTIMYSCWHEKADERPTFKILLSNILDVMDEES

[3] = Lung tissue and plasma concentration ratios in mice; type: in vivo, CD-1 mouse; conditions: single oral dose 5 mg/kg, 2-in-1 with dasatinib, all time points tested
Protocol: CD-1 mouse (approximate weight 30 g, N=3) were dosed by oral gavage at 10 mL/kg. Blood samples were collected into tubes containing EDTA as the anticoagulant at 1, 2, 4, 10 h post-dosing for Compound X, and predose, 1, 2, 3, 8, 10 and 24 h post-dosing for Compound XI. The plasma samples were prepared by centrifugation. Lung samples were also collected at each of the above time points. The lung samples were homogenated in 4× distilled water (v/w). The plasma samples and the homogenated lung tissue samples were mixed with 3× volumes of acetonitrile containing 100 nM reserpine as the internal standard, and centrifuged at 4000 RPM for 15 min. The supernatants were injected for LC/MS analysis which were carried out on a AB Sciex 4000 Q Trap LC/MS/MS system coupled with Shimadzu Prominence UFLCXR 20 series (including a CBM-20A controller, two LC-20ADXR solvent delivery units, SIL-20AC HT autosampler, CTO-20A column oven, and a SPD-20A UV detector). The samples were separated on a Phenomenex Columbus column (C18, 4 μm, 50×2 mm) eluted with two solvent systems: 2 mM ammonium acetate in water containing 0.1% formic acid (A) and methanol (B) at a linear gradient starting at 25%. Electrospray ionization in positive mode was used to acquire LC/MS/MS data.

PDGFRα = molecular target: T5, PDGFRα (Homo sapiens, UniProt P16234); assay: Off-chip Mobility Shift Assay; type: biochemical; conditions: read-out: IC50, recombinant PDGFRα activity
T5 construct: purchased Carna Biosciences

RAF1 = assay: Off-chip Mobility Shift Assay; type: biochemical; conditions: 10 nM
ACK = molecular target: T6, ACK (Homo sapiens, UniProt Q07912); assay: Off-chip Mobility Shift Assay; type: biochemical; conditions: read-out: IC50, recombinant ACK activity
T6 construct: purchased Carna Biosciences
T6 sequence (Q07912 whole entry): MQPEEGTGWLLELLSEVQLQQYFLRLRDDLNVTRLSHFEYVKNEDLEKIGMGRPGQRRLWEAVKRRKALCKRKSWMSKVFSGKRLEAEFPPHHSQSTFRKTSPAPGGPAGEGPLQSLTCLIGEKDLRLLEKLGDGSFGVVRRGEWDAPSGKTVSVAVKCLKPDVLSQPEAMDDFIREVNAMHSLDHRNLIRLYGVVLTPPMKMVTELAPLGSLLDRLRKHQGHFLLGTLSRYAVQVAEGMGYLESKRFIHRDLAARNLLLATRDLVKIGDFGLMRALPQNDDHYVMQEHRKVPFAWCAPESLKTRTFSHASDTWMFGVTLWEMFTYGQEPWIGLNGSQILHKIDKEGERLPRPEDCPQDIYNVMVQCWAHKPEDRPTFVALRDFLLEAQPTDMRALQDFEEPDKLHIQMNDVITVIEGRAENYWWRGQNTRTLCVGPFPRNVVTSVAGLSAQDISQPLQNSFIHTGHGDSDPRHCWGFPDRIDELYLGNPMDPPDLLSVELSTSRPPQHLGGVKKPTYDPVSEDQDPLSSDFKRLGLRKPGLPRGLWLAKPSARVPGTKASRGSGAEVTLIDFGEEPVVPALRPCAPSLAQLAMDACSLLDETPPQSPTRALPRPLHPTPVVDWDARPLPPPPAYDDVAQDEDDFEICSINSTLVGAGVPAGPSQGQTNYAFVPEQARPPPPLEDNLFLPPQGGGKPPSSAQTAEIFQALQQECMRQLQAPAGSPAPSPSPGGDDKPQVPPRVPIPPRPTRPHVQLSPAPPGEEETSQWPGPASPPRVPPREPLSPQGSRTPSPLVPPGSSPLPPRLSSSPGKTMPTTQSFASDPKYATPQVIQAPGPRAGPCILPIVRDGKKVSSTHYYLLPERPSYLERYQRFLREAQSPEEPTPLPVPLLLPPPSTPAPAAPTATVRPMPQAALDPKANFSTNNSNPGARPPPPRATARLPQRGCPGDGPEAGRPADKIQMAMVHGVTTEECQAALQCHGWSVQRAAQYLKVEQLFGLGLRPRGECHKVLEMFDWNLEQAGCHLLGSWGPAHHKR

PIK3CA/PIK3R1 = molecular target: T7, PIK3CA/PIK3R1 (Homo sapiens, UniProt P42336); assay: Off-chip Mobility Shift Assay; type: biochemical; conditions: read-out: IC50, recombinant PIK3CA/PIK3R1 activity
T7 construct: purchased Carna Biosciences
T7 sequence (P42336 whole entry): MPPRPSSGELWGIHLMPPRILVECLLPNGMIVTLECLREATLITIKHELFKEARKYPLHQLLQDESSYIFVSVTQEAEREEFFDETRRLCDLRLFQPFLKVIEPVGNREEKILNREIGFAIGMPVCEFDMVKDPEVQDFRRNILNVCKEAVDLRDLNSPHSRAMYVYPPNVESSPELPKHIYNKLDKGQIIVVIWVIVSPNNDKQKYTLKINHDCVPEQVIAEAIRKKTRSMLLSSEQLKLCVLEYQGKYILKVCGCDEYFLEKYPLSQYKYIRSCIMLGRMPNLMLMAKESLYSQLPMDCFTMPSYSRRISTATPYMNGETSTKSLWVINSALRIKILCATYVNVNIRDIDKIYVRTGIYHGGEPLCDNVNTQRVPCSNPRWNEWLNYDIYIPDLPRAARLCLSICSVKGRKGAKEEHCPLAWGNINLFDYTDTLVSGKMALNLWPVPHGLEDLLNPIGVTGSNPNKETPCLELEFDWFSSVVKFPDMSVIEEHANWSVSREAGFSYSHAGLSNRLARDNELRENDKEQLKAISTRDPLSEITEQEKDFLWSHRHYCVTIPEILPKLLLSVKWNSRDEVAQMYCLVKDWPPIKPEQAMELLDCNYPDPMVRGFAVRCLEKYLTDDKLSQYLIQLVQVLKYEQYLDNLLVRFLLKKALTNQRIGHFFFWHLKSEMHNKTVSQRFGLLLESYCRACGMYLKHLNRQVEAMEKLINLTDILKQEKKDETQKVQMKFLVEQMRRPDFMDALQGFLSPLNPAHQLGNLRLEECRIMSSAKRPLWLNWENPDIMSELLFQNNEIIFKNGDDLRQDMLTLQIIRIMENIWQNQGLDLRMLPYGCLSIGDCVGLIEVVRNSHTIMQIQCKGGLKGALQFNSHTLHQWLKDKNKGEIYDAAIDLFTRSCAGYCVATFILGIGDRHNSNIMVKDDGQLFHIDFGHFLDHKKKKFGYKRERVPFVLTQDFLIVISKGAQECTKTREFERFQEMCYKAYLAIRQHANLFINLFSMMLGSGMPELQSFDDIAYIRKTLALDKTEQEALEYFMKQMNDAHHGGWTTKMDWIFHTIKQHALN
T7 sequence (P27986 whole entry partner): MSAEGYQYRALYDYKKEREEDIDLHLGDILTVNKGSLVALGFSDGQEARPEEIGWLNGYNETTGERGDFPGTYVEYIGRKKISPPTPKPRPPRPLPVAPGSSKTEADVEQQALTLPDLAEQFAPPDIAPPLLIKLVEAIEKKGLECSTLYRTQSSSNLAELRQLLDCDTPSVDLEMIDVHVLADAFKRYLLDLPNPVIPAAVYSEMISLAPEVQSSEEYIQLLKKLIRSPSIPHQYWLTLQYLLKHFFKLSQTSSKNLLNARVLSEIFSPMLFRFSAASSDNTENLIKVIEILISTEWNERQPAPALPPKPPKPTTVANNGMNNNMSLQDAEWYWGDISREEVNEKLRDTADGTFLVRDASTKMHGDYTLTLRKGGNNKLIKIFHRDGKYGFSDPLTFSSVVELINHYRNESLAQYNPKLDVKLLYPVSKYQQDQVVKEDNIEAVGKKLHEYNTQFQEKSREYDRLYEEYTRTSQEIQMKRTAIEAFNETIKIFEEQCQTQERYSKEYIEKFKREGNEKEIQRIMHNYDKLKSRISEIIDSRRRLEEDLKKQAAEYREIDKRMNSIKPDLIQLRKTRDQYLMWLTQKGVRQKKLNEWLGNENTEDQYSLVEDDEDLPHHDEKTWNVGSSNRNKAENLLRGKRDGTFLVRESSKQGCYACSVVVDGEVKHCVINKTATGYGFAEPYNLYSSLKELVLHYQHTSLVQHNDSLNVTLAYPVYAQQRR

[4] = Sprague-Dawley, rat, plasma, iv, 1 mg/kg, intravenous 1 mg/kg
[5] = Sprague-Dawley, rat, plasma, po, 5 mg/kg, PO 5 mg/kg
[6] = Sprague-Dawley, rat, PO 5 mg/kg

T1 sequence (Q06187 whole entry C481S): as the sequence (Q06187 whole entry) above, with C481S counted along it

`Cc1nc(Nc2ncc(C(=O)Nc3c(C)cccc3Cl)s2)cc(N2CC[C@@H](O)C2)n1` [Compound XI, N-(2-chloro-6-methylphenyl)-2-[[2-methyl-6-((R)-3-hydroxypyrrolidin-1-yl)pyrimidin-4-yl]amino]thiazole-5-carboxamide] gave an IC50 (BTK (C481S)) of under 1 nM, an IC50 (ABL) of under 1 nM and an IC50 (ABL(E255K)) of under 1 nM. For the same compound, the “intravenous plasma clearance compared to dasatinib and compound III” value [1] was “much lower”, the “intravenous volume of distribution compared to dasatinib and compound III” value [1] was “significantly lower” and the clearance [1, 4] was 6.77 mL/min/kg. The Vd [1, 4] was 1 L/kg, the AUC(0-inf) [1, 4] was 2480 ± 243 ng·h/mL and the AUC(0-t) [1, 4] was 2480 ± 243 ng·h/mL. For the same compound, the half-life [1, 4] was 1.6 ± 0.2 h, the AUC(0-inf) [1, 5] was 1500 ± 273 ng·h/mL and the AUC(0-t) [1, 5] was 1420 ± 343 ng·h/mL. It also gave a half-life [1, 5] of 6 ± 3.6 h, a bioavailability ([1]; Sprague-Dawley, rat, plasma, PO 5 mg/kg versus intravenous 1 mg/kg, AUCinf dose normalized (Table 3), read-out: F (percent oral bioavailability)) of 24 ± 33.1% and a Cmax [1, 6] of 102 ± 86 ng/mL. The Tmax [1, 6] was 0.5 h, the “metabolic stability as compared to dasatinib” value [2] was “significantly greater stability” and the microsomal CLint at 1 μM [2] was under 24 µL/min/mg. For the same compound, the half-life at 1 μM [2] was over 0.983 h, the IC50 (BTK) was under 1 nM and the “ratio of lung tissue concentration to plasma concentration as compared to dasatinib” value [3] was “significantly lower”.
`Cc1nc(Nc2ncc(C(=O)Nc3c(C)cccc3Cl)s2)cc(N2CC[C@H](O)C2)n1` [Compound X, N-(2-chloro-6-methylphenyl)-2-[[2-methyl-6-((S)-3-hydroxypyrrolidin-1-yl)pyrimidin-4-yl]amino]thiazole-5-carboxamide] showed an IC50 (BTK (C481S)) of under 1 nM, an IC50 (ABL) of under 1 nM and an IC50 (ABL(E255K)) of under 1 nM. For the same compound, the “intravenous plasma clearance compared to dasatinib and compound III” value [1] was “much lower”, the “intravenous volume of distribution compared to dasatinib and compound III” value [1] was “significantly lower” and the clearance [1, 4] was 6.75 mL/min/kg. For the same compound, the Vd [1, 4] was 1 L/kg, the AUC(0-inf) [1, 4] was 2520 ± 446 ng·h/mL and the AUC(0-t) [1, 4] was 2520 ± 446 ng·h/mL. The half-life [1, 4] was 1.6 ± 0.2 h, the AUC(0-inf) [1, 5] was 1200 ± 349 ng·h/mL and the AUC(0-t) [1, 5] was 1120 ± 369 ng·h/mL. The half-life [1, 5] was 6.8 ± 4.1 h, the Cmax [1, 6] was 93 ± 101 ng/mL and the Tmax [1, 6] was 0.5 h. The “metabolic stability as compared to dasatinib” value [2] was “significantly greater stability”, the microsomal CLint at 1 μM [2] was under 24 µL/min/mg and the half-life at 1 μM [2] was over 0.983 h. For the same compound, the IC50 (BTK) was under 1 nM and the “ratio of lung tissue concentration to plasma concentration as compared to dasatinib” value [3] was “significantly lower”.
With `[2H]c1cc(C)c(NC(=O)c2cnc(Nc3cc(N4CCCCC4)nc(C)n3)s2)c(Cl)c1` [Compound I, N-(2-chloro-4-deuterio-6-methyl-phenyl)-2-[[2-methyl-6-(1-piperidyl)pyrimidin-4-yl]amino]thiazole-5-carboxamide] the IC50 (PDGFRα) was about 1.4 nM, the “inhibition of RAF1” value (RAF1) was under 50% and the IC50 (ACK) was about 0.5 nM. The IC50 (PIK3CA/PIK3R1) was about 12 nM, the “metabolic stability as compared to dasatinib” value [2] was “significantly greater stability” and the IC50 (BTK) was about 0.2 nM.
